# Biological target: DNA gyrase subunit B (Staphylococcus aureus, UniProt P0A0K8)
# Assay: Inhibition of Staphylococcus aureus DNA gyrase Gyr B subunit by ATPase assay
# DNA gyrase subunit B, sequence (P0A0K8 whole entry): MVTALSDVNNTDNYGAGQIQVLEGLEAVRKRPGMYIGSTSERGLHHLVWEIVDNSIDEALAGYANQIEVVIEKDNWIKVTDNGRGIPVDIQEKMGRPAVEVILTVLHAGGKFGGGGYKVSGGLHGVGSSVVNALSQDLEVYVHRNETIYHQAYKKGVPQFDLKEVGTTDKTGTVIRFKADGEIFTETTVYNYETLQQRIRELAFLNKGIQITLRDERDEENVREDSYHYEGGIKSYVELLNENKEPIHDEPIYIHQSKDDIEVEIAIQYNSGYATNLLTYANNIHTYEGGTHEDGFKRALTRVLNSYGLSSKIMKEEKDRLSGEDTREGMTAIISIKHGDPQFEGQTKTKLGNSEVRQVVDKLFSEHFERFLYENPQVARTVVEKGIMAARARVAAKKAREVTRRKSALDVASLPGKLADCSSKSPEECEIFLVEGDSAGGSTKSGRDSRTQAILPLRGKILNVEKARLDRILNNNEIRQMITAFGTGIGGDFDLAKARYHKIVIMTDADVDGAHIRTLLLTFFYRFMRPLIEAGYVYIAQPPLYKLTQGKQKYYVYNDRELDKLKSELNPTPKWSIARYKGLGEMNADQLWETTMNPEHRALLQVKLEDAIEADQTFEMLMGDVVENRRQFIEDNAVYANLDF
structure (smiles),measurement,value
CCNC(=O)Nc1nc2cc(-c3cnc(C(C)(C)OP(=O)(O)O)nc3)c(F)c([C@H]3CCCO3)c2[nH]1,Ki,< 9 nM

# Reference: ChEMBL document CHEMBL2151022, “Combatting Drug-Resistant Bacteria with Gyrase and Topoisomerase IV Inhibitors: Patent Highlight” (ACS Med Chem Lett, 2012)
